Test results published in patent publication US8697081B2, “Method of modulating neovascularization” (The Regents of the University of Michigan, priority 2008, dated 2014).

Tests used:
Type in all cases: cell-based
[1] = system: human endothelial cells; experiment: Fn matrix assembly by endothelial cells in 3-D fibrin gel, confocal laser microscopy; details: growth factor cocktail, FUD or Del29 250 nM, L8 or 9D2 100 μg/ml, 70 kDa Fn fragment 75 μg/ml
Method: Endothelial cells were isolated from human umbilical cord veins by collagenase digestion and cultured in Medium 199 (Gibco) containing 20% human serum, 50 μg/ml endothelial cell growth supplement (BD Biosciences), 100 U/ml penicillin, and 100 μg/ml streptomycin (Hiraoka et al. 1998. Cell, 95(3): 365-377). For 2-D/3-D culture, endothelial cell monolayers (no later than third passage) were suspended by mild trypsinization and dispersed within or plated atop fibrin (3 mg/ml) or collagen (2.2 mg/ml) gels (prepared as described in Hiraoka, supra, and Hotary et al. 2003. Cell, 114(1): 33-45), and stimulated with a cocktail of growth factors including 100 ng/ml human vascular endothelial growth factor (Genentech), 50 ng/ml human hepatocyte growth factor (Genentech), 10 ng/ml human TGFα (Biosource), 0.5 ng/ml TGFβ1 (R and D Systems), and 100 μg/ml heparin (Sigma). In selected experiments, endothelial cell spheroids were prepared and suspended in 3-D fibrin gels.
The effect of Fn matrix assembly, or lack thereof, on endothelial cell function during neovascularization was assessed. Human serum was depleted of Fn by gelatin-sepharose affinity chromatography (Amersham) and supplemented with either 20 μg/ml of human plasma Fn (Sigma) or FITC-labeled Fn. […]
(Chernousov et al. 1991. J. Biol. Chem., 266(17): 10851-10858; Tomasini-Johansson et al. 2001. J. Biol. Chem., 276(26): 23430-23439; Mao and Schwarzbauer. 2005. Matrix Biol., 24(6): 389-399; and Tomasini-Johansson et al. 2006. Matrix Biol., 25(5): 282-293). […] Cell number in 3-D cultures was determined by hemacytometry after dissolving gels with 2 mg/ml bacterial collagenase (Worthington) while the number of patent tubules was determined in randomly selected cross-sections. Fn matrix assembly and cell morphology were monitored by confocal laser microscopy. To examine cell migration, endothelial cells were embedded in a 100 μl fibrin gel for 2 hours, then placed within a 500 μl gel for 8 days in the presence of Del29, FUD, control IgG, or L8, after which migration from the inner gel was assessed. […]

[2] = system: human endothelial cells; experiment: F-actin cytoskeletal organization, activated β1 integrin and vinculin distribution (phalloidin, confocal); details: 3-D fibrin gel, 2 days, FUD or Del29 peptide
Method: To further study the effects of Fn matrix inhibition, additional cytological processes associated with angiogenesis were examined. Endothelial cells were cultured within 3-D or 2-D fibrin gels in the presence of the FUD or Del 29 peptides for 2 days. F-actin cytoskeletal organization was monitored following staining with Alexa 488-conjugated phalloidin. Cells also were stained with an antibody against activated β1 integrin or transfected with a GFP-tagged vinculin expression vector (pRK-vinculin-EGFP) to study distribution. Following counterstaining with Alexa 594-labeled phalloidin, fluorescence was monitored by confocal laser microscopy.
In the absence of Fn fibrillogenesis, an impaired ability of embedded endothelial cells to generate myosin-dependent forces and increase cytoplasmic stiffness was predicted to affect both Fn unfolding, as well as the ability of the cells to properly register the mechanical properties of the surrounding substratum (Wu et al. 1995. Cell, 83(5): 715-724; Zhong et al. 1998. J. Cell Biol., 141(2): 539-551; Baneyx et al. 2002. Proc. Natl. Acad. Sci. USA, 99(8): 5139-5143; Discher et al. 2005. Science, 310(5751): 1139-1143; Engler, supra; and Yoneda, supra). As such, the rheologic and functional characteristics of endothelial cells were assessed in the presence of the specific myosin ATPase inhibitor, blebbistatin. […]

[3] = system: Human umbilical vein endothelial cells; experiment: Nuclear architecture (GFP-lamin A, emerin) and nuclear pore complex (NUP153) distribution; details: 3-D culture, VEGF/HGF-stimulated, blebbistatin or nocodazole
Source text: (§1) At sites of tissue damage, inflammation or neoplasia, fibrinogen is converted into a 3-D meshwork of fibrin fibrils that serve as a structural support for endothelial cells undergoing neovascularization (Chun et al. 2006. Cell, 125: 577-591; Hiraoka et al. 1998. Cell, 95: 365-377; Schafer and Werner. 2008. Nat. Rev. Mol. Cell Biol., 9: 628-638; Zhou et al. 2008. Genes Dev., 22: 1231-1243). This process can be recapitulated in vitro by embedding serum-supplemented human endothelial cells within a 3-D fibrin gel in the presence of the pro-angiogenic factors, VEGF and HGF. Human umbilical vein endothelial cells were isolated from umbilical cords by perfusion of the umbilical vein with type 3 collagenase (Worthington, Lakewood, N.J.) and cultured in Medium-199 (Invitrogen, Carlsbad, Calif.) with 20% human serum and 50 μg/ml endothelial cell growth supplement (ECGS; BD Biosciences, Franklin Lakes, N.J.). For 3-D culture, endothelial cells were suspended in a solution of thrombin and aprotinin (Sigma, St. Louis, Mo.) and mixed 1:1 with a solution of 6 mg/ml fibrinogen (Calbiochem, Gibbstown, N.J.). Vasculogenesis was triggered by treatment with 100 ng/ml VEGF, 50 ng/ml HGF (Genentech, San Francisco, Calif.). Fibronectin fibrillogenesis was tracked in 3-D by co-culture with human fibronectin (Sigma) labeled with Alexa-594 (Invitrogen).
As the 3-D-specific requirements for MT-MMPs and fibronectin matrix assembly correlate with changes in endothelial cell morphology, efforts were initiated to identify mechanistic routes whereby cell shape changes impact cell function. In particular, the impact of ECM remodeling on nuclear architecture was investigated. Nuclear architecture was tracked by either transfecting cells with a GFP-tagged form of the nuclear matrix filament, lamin A, or by immunostaining for the integral nuclear membrane protein, emerin (Dahl et al., 2008. Circ. Res., 102: 1307-1318; Glynn and Glover, 2005. Hum. Mol. Genet., 14: 2959-2969; Starr, 2009. J. Cell Sci., 122: 577-586; Stewart et al., 2007. Science, 318: 1408-1412). Under 2-D conditions, endothelial cell nuclei assumed an ellipsoid shape when cultured atop fibrin gels in the absence or presence of VEGF/HGF. In marked contrast, under 3-D conditions, endothelial cells cultured within fibrin gels in the absence of VEGF/HGF unexpectedly display a distorted morphology with multiple lamin A matrix and emerin infoldings and surface irregularities. Upon addition of VEGF/HGF, however, the nuclei of fibrin-embedded endothelial cells undergo a dramatic, and 3-D-specific, remodeling to assume a more classic, ovoid morphology. Three-dimensional reconstructions of DAPI-stained nuclei confirm that nuclear architecture transitions between multi-lobed and smooth elliptical shapes in the absence or presence, respectively, of VEGF/HGF.
Nuclear matrix architecture controls the distribution of the nuclear pore complexes that regulate the trafficking of protein and RNA across the nuclear envelope (Goldman et al., 2004. Proc. Natl. Acad. Sci. USA, 101: 8963-8968; Hawryluk-Gara et al., 2005. Mol. Biol. Cell, 16: 2382-2394; Liu et al., 2007. J. Cell. Biol., 178: 785-798). As such, the localization of nuclear pores was assessed in intact cells by monitoring the localization of the component protein, NUP153. In 3-D culture, unstimulated endothelial cells accumulate NUP153-containing pore complexes at nuclear membrane invaginations. In contrast, the nuclei of VEGF/HGF-stimulated endothelial cells display a uniform distribution of pore complexes in nuclear membranes.
To determine the roles of MMP-dependent proteolysis and fibronectin matrix assembly in mediating nuclear shape and nuclear pore complex changes, fibrin-embedded endothelial cells were stimulated with VEGF/HGF in the presence of FUD or GM6001. […]

[4] = system: Human umbilical vein endothelial cells; experiment: VEGF/HGF-triggered vasculogenesis in 3-D fibrin gel, or growth in 2-D culture; details: 3-D culture, VEGF/HGF-stimulated, blebbistatin or nocodazole
Source text: as §1
In the presence of VEGF and HGF, endothelial cells i) underwent marked changes in cell morphology from spherical to elongated, ii) mobilized proteinases which degrade the surrounding fibrin, iii) assembled a pericellular meshwork of fibronectin fibrils, and iv) initiated proliferative and tubulogenic responses that result in the formation of an anastomosing network of neovessels over a 6 day culture period (Hiraoka, supra; Saunders et al., 2006. J Cell Biol. 175: 179-191; Zhou et al., 2008. Proc. Natl. Acad. Sci. USA, 97: 4052-4057). […] Cell, 125: 757-767; Saunders et al., supra; Tomasini-Johansson et al., 2001. J. Biol. Chem., 276: 23430-23439; Zhou et al, supra). Endothelial cells cultured atop—rather than embedded within—fibrin gels (herein referred to as 2-D culture) display distinct growth requirements from those observed in 3-D culture.
Taken together, cytoskeletal reorganization and contractile tension may serve as the biomechanical effectors that transmit structural and mechanical cues from the pericellular ECM to the nuclear envelope. VEGF/HGF-stimulated endothelial cells were treated with either (a) blebbistatin to inhibit myosin ATPase function, or (b) nocodazole to prevent microtubule assembly under 3-D culture conditions (Salpingidou et al., 2007. J. Cell Biol., 178: 897-904; Zhou et al., supra).

[5] = system: Human umbilical vein endothelial cells; experiment: Chromatin organization (GFP-H2B, H3K9me3) and histone H3/H4 acetylation; details: 3-D culture, VEGF/HGF-stimulated, blebbistatin or nocodazole
Source text: as §1
Yet, multi-lobed nuclei and anomalous nuclear pore complex distributions can be observed in laminopathies, a pleiotropic series of genetic disorders wherein mutations in lamin or emerin impact chromatin organization, histone modifications, and transcriptional activity (Csoka et al., 2004. Aging Cell, 3: 235-243; Dechat et al., 2008. Genes Dev, 22: 832-853; Dillon, 2008. Dev Cell, 15: 182-186; Malhas et al., 2007. J. Cell Biol., 176: 593-603; Mendjan et al., 2006. Mol. Cell, 21: 811-823; Shumaker et al., 2006. Proc. Natl. Acad. Sci. USA, 103: 8703-8708; Tang et al., 2008. J. Cell Sci., 121: 1014-1024). To determine whether VEGF/HGF-dependent changes in nuclear shape similarly affect chromatin structure/function, chromatin packaging was tracked at the single-endothelial cell level by monitoring GFP-tagged histone H2B or pericentromeric constitutive heterochromatin localization. […] heterochromatin localization was visualized by immunostaining for trimethylated lysine 9 of histone H3 (H3K9me3) (Shumaker, supra; Tang, supra).
Histone acetylation can be regulated by chromatin positioning within the nucleus (Finlan et al., 2008. PLoS Genet, 4: e1000039; Somech et al., 2005. J. Cell Sci., 118: 4017-4025). Thus, the acetylation status of histones H3 and H4 was assessed as functional markers of changes in chromatin organization. […]

[6] = system: Human umbilical vein endothelial cells; experiment: Cytoskeletal organization (F-actin, β-tubulin, vimentin) and isometric tension/contractile force; details: 3-D culture, VEGF/HGF-stimulated, blebbistatin or nocodazole

Compound	Fn matrix assembly (Fn polymerization) [1]	stress fiber formation (F-actin phalloidin staining) [2]	nuclear shape and nuclear pore distribution [3]	endothelial cell 3-D tubulogenesis [4]	chromatin distribution [5]	levels of acetylated histones H3 and H4 [5]	contractile force exerted on the 3-D ECM [6]
Del29: control peptide wherein FUD residue 29 is deleted to abrogate Fn binding (KDQSPLAGESGETEYITEVYGNQQNPVDDKKLPNETGFSGNMVETEDT)	did not negatively impact	well-organized stress fibers					
COC(=O)Nc1nc2ccc(C(=O)c3cccs3)cc2[nH]1 [nocodazole]			multi-lobed nuclei with perturbations in nuclear pore distribution	completely inhibit	chromatin condensations at the nuclear periphery with increased interchromatin space	decreased levels	impairing
